Results as given in paper PMC3660367, “MARCKS Protein Is Phosphorylated and Regulates Calcium Mobilization during Human Acrosomal Exocytosis” (PLoS ONE, 2013).
No end group written: not given here.

Assays:
[1] = test system: living human sperm; experiment: Permeation of ED-TMR into non-permeabilized human sperm (fluorescence microscopy, trypsin treatment before fixation); type: cell-based; settings: 4 µM ED-TMR 30 min 37°C, then 0.5 µg/ml trypsin 30 min 37°C before fixation
Description: So far all results were obtained using the SLO-permeabilized human sperm model. […] Fortunately, MARCKS ED meets this requirement and it can be assayed in acrosomal exocytosis in non-permeabilized sperm. To investigate the function of MARCKS in intact cells, we analyzed the effect of a permeable peptide corresponding to wt MARCKS ED in living human sperm. We used a commercial MARCKS peptide, the tetramethylrhodamine-conjugated peptide sequence KKRFSFKKSFKL (ED-TMR) derived from amino acid residues 154 –165 of human MARCKS ED, which retains the first two of the four serine residues in the ED (see peptide scheme in Fig. 3A). First, we determined the permeability of ED-TMR in living human sperm (see Fig. S3). To rule out that the translocation of the protein was a fixation artifact, cells were treated with trypsin before fixation. […] A similar permeable MARCKS peptide has been used in sea urchin sperm and it was found enriched in the acrosome region.
Supplementary file pone.0064551.s003.tif: Figure S3 MARCKS peptide permeates into non-permeabilized sperm. (A) Non-permeabilized sperm were treated for 30 minutes at 37°C with 4 µM permeable MARCKS ED domain (ED-TMR) and then incubated with (+) or without (-) 0.5 µg/ml trypsin for 30 minutes at 37°C. […] (B) Quantification of tetramethylrhodamine-labeled acrosome sperm. At least 300 cells were scored. […]

[2] = test system: acrosomal exocytosis in non-permeabilized human sperm; experiment: Acrosomal exocytosis assay in non-permeabilized (living) human sperm; type: cell-based
Method: Acrosomal exocytosis assays were performed as previously described. Briefly, human semen obtained from normal healthy donors was allowed to liquefy for 30-60 min at 37°C. We used a swim-up protocol to isolate highly motile sperm under capacitating conditions in Human Tubal Fluid media (HTF, as formulated by Irvine Scientific, Santa Ana, CA) supplemented with 0.5% bovine serum albumin (BSA) for 1 h at 37°C in an atmosphere of 5% CO2/95% air. Sperm concentrations were adjusted to 5–10×10^6 cells/ml and incubated for at least 2 h under capacitating conditions. We have shown previously that human sperm incubated under these conditions are responsive to progesterone. […] Acrosomal status was evaluated by staining with FITC-coupled Pisum sativum agglutinin (FITC-PSA) according to [21]. At least 200 cells were scored using a Nikon Optiphot II microscope equipped with epifluorescence optics. […] For each experiment, acrosomal exocytosis indexes were calculated by subtracting the number of reacted spermatozoa in the negative control (range 10%–30%) from all values, and expressing the resulting values as a percentage of the acrosome exocytosis observed in the positive control (range 25%–40%). […] Data were evaluated using one-way ANOVA and post hoc tests (Dunnett's test or confident intervals). […]

KKRFSFKKSFKL (also: tetramethylrhodamine conjugate, site not given here) [ED-TMR, commercial (Anaspec) tetramethylrhodamine-conjugated peptide … from residues 154–165 of human MARCKS ED]
permeability of ED-TMR in living human sperm (localisation) [1]: detected mainly in the head of human sperm
effect on acrosomal exocytosis stimulated by A23187, PMA and progesterone ([2]; non-permeabilized capacitated sperm, peptide 30 min 37°C, then 10 µM A23187, 200 nM PMA or 15 µM progesterone 15 min): inhibited the secretion
acrosomal exocytosis index at high concentrations versus unstimulated controls (basal exocytosis) ([2]; non-permeabilized sperm, high concentrations): significantly lower than the index in unstimulated controls
